Drawing on PubChem BioAssay AID228 (DTP/NCI, 2004), this text covers T/C for 17 molecules.

Where “and” joins values, the source holds several entries; their conditions need not be identical. Equal values may be shown once. Results filed as inconclusive are left out.

The test system of the assay is BDF1 mice, Friend leukemia sc, tumor weight T/C. The experiment in a line: NCI In Vivo Anticancer Drug Screen. Data for tumor model Friend Virus Leukemia (Solid) (subcutaneous) in B6D2F1 (BDF1) mice. Particulars: endpoint: mean tumor weight, higher = larger tumour. The protocol: The antitumor activity of compounds was measured in mice bearing transplantable tumors. Survival or tumor size were measured and the results are expressed as the measurement made in the treated group (T) divided by the measurement made in the vehicle treated control group (C). The tumor model used in this assay is Friend Virus Leukemia (Solid) (subcutaneous) in B6D2F1 (BDF1) mice

[1] abbreviates: dose: 19.0 mg/kg/injection, schedule: Q01DX011 (sc), vehicle: steriod suspending solution.
[2] abbreviates: dose: 75.0 mg/kg/injection, schedule: Q01DX011 (sc), vehicle: steriod suspending solution.
Where [3] appears, read: dose: 150.0 mg/kg/injection, schedule: Q01DX011 (sc), vehicle: steriod suspending solution.
[4] abbreviates: dose: 300.0 mg/kg/injection, schedule: Q01DX011 (sc), vehicle: steriod suspending solution.
The mark [5] stands for this setting: dose: 250.0 mg/kg/injection, schedule: Q01DX011 (ip), vehicle: carboxymethylcellulose (CMC).
The mark [6] stands for this setting: dose: 500.0 mg/kg/injection, schedule: Q01DX011 (ip), vehicle: carboxymethylcellulose (CMC).
Where [7] appears, read: dose: 3.0 mg/kg/injection, schedule: Q01DX011 (ip), vehicle: carboxymethylcellulose (CMC).
Setting [8] is: dose: 25.0 mg/kg/injection, schedule: Q01DX011 (ip), vehicle: carboxymethylcellulose (CMC).
[9] abbreviates: dose: 50.0 mg/kg/injection, schedule: Q01DX011 (ip), vehicle: carboxymethylcellulose (CMC).
[10] abbreviates: dose: 6.0 mg/kg/injection, schedule: Q01DX011 (ip), vehicle: carboxymethylcellulose (CMC).

As for `O=C(O)c1cc(O)c(O)c(O)c1`, the T/C runs as follows: (dose: 50.0 mg/kg/injection, schedule: Q01DX011 (ip), vehicle: alkali diluted with saline) 85 % of control; (dose: 100.0 mg/kg/injection, schedule: Q01DX011 (ip), vehicle: alkali diluted with saline) 79 % of control; (dose: 200.0 mg/kg/injection, schedule: Q01DX011 (ip), vehicle: alkali diluted with saline) 84 % of control; (dose: 400.0 mg/kg/injection, schedule: Q01DX011 (ip), vehicle: alkali diluted with saline) 95 % of control.
On to `Cc1nc2nc(N)nc(N)c2nc1C`, for which the T/C is, setting by setting: (dose: 13.12 mg/kg/injection, schedule: Q01DX011 (ip), vehicle: carboxymethylcellulose (CMC)) 103 % of control; (dose: 26.25 mg/kg/injection, schedule: Q01DX011 (ip), vehicle: carboxymethylcellulose (CMC)) 89 % of control; (dose: 52.5 mg/kg/injection, schedule: Q01DX011 (ip), vehicle: carboxymethylcellulose (CMC)) 52 % of control; (dose: 105.0 mg/kg/injection, schedule: Q01DX011 (ip), vehicle: carboxymethylcellulose (CMC)) 61 % of control.
In the case of `CC(=O)[C@H]1CC[C@H]2[C@@H]3CCC4=CC(=O)[C@H](C)C[C@]4(C)[C@@]3(F)[C@@H](O)C[C@]12C`, the T/C by setting is: (dose: 9.5 mg/kg/injection, schedule: Q01DX011 (sc), vehicle: steriod suspending solution) 71 % of control; under setting [1], 50 % of control; under setting [2], 25 % of control and 42 % of control and 46 % of control; under setting [3], 28 % of control; under setting [4], 19 % of control.
Regarding `CNC(C)=O`, the T/C by setting is: under setting [5], 104 % of control; under setting [6], 99 % of control and 107 % of control; (dose: 1000.0 mg/kg/injection, schedule: Q01DX011 (ip), vehicle: carboxymethylcellulose (CMC)) 75 % of control and 76 % of control.
Turning to `CC(C)(c1ccccc1)c1ccc(O)cc1`, the T/C is, setting by setting: (dose: 37.5 mg/kg/injection, schedule: Q01DX011 (ip), vehicle: carboxymethylcellulose (CMC)) 94 % of control; (dose: 75.0 mg/kg/injection, schedule: Q01DX011 (ip), vehicle: carboxymethylcellulose (CMC)) 107 % of control; (dose: 150.0 mg/kg/injection, schedule: Q01DX011 (ip), vehicle: carboxymethylcellulose (CMC)) 87 % of control.
On to `CCN(CC)CCNc1ccc([N+](=O)[O-])c2sc3ccccc3c(=O)c12`, for which the T/C is, setting by setting: (dose: 20.0 mg/kg/injection, schedule: Q01DX011 (ip), vehicle: saline) 87 % of control; (dose: 40.0 mg/kg/injection, schedule: Q01DX011 (ip), vehicle: saline) 110 % of control.
In the case of `CC(C)(CC(=O)O)CC(=O)OCC(=O)[C@@]1(O)CC[C@H]2[C@@H]3CCC4=CC(=O)C=C[C@]4(C)[C@H]3[C@@H](O)C[C@@]21C`, the T/C is, setting by setting: (dose: 9.0 mg/kg/injection, schedule: Q01DX011 (sc), vehicle: steriod suspending solution) 61 % of control; under setting [1], 58 % of control; (dose: 37.5 mg/kg/injection, schedule: Q01DX011 (sc), vehicle: steriod suspending solution) 48 % of control; (dose: 38.0 mg/kg/injection, schedule: Q01DX011 (sc), vehicle: steriod suspending solution) 50 % of control; under setting [2], 46 % of control and 47 % of control; under setting [3], 46 % of control and 47 % of control. Moreover, the T/C was 37 % of control and 38 % of control under setting [4]; 31 % of control (dose: 600.0 mg/kg/injection, schedule: Q01DX011 (sc), vehicle: steriod suspending solution).
As to `NC(CO)C(=O)O` (stereo unspecified), the T/C is, setting by setting: under setting [5], 108 % of control; under setting [6], 112 % of control.
Turning to `COc1ccc(-c2coc3cc(OC)c(OC)c(OC)c3c2=O)cc1`, the T/C was 299 % of control (dose: 50.0 mg/kg/injection, schedule: Q01DX011 (sc), vehicle: steriod suspending solution); 250 % of control (dose: 100.0 mg/kg/injection, schedule: Q01DX011 (sc), vehicle: steriod suspending solution); 275 % of control (dose: 200.0 mg/kg/injection, schedule: Q01DX011 (sc), vehicle: steriod suspending solution).
On to `CC(C)Sc1nc(N)nc2nc[nH]c12`, for which the T/C by setting is: under setting [7], 97 % of control; under setting [8], 14 % of control; under setting [9], 2 % of control.
For the molecule `O=c1[nH]cc(F)c(=O)[nH]1`, the T/C was 84 % of control under setting [7]; 101 % of control (dose: 3.3 mg/kg/injection, schedule: Q01DX011 (ip), vehicle: carboxymethylcellulose (CMC)); 66 % of control and 44 % of control under setting [10]; 83 % of control (dose: 6.7 mg/kg/injection, schedule: Q01DX011 (ip), vehicle: carboxymethylcellulose (CMC)); 69 % of control and 71 % of control (dose: 13.5 mg/kg/injection, schedule: Q01DX011 (ip), vehicle: carboxymethylcellulose (CMC)); 93 % of control (dose: 18.0 mg/kg/injection, schedule: Q01DX011 (ip), vehicle: carboxymethylcellulose (CMC)). For the same molecule, the T/C (dose: 27.0 mg/kg/injection, schedule: Q01DX011 (ip), vehicle: carboxymethylcellulose (CMC)) was 22 % of control and 28 % of control.
In the case of `CCC1=C(c2cc(Cl)c3ccccc3c2OCC(=O)O)OC(CC)(C(=O)c2cc(Cl)c3ccccc3c2OCC(=O)O)CC1` (stereo unspecified), the T/C was 52 % of control (dose: 30.0 mg/kg/injection, schedule: Q01DX011 (ip), vehicle: carboxymethylcellulose (CMC)); 55 % of control (dose: 60.0 mg/kg/injection, schedule: Q01DX011 (ip), vehicle: carboxymethylcellulose (CMC)); 63 % of control (dose: 120.0 mg/kg/injection, schedule: Q01DX011 (ip), vehicle: carboxymethylcellulose (CMC)); 66 % of control (dose: 240.0 mg/kg/injection, schedule: Q01DX011 (ip), vehicle: carboxymethylcellulose (CMC)).
In the case of `CCCCCC(=O)O[C@]1(C(C)=O)CC[C@H]2[C@@H]3CCC4=CC(=O)CC[C@]4(C)[C@H]3CC[C@@]21C`, the T/C (dose: 125.0 mg/kg/injection, schedule: Q01DX011 (sc), vehicle: steriod suspending solution) is 173 % of control; the T/C (dose: 250.0 mg/kg/injection, schedule: Q01DX011 (sc), vehicle: steriod suspending solution) is 166 % of control; the T/C (dose: 375.0 mg/kg/injection, schedule: Q01DX011 (sc), vehicle: steriod suspending solution) is 156 % of control; the T/C (dose: 750.0 mg/kg/injection, schedule: Q01DX011 (sc), vehicle: steriod suspending solution) is 124 % of control.
For `N=C(N)c1ccc(Nc2ccc(C(=N)N)cc2)cc1`, the T/C is, setting by setting: (dose: 5.0 mg/kg/injection, schedule: Q01DX011 (ip), vehicle: water) 186 % of control; (dose: 7.5 mg/kg/injection, schedule: Q01DX011 (ip), vehicle: water) 164 % of control; (dose: 10.0 mg/kg/injection, schedule: Q01DX011 (ip), vehicle: water) 154 % of control; (dose: 15.0 mg/kg/injection, schedule: Q01DX011 (ip), vehicle: water) 180 % of control.
In the case of `Nc1nc(SCc2ccccc2Cl)c2ncn(C3OC(CO)C(O)C3O)c2n1` (stereo unspecified), the T/C is, setting by setting: (dose: 0.38 mg/kg/injection, schedule: Q01DX011 (ip), vehicle: carboxymethylcellulose (CMC)) 102 % of control; (dose: 0.75 mg/kg/injection, schedule: Q01DX011 (ip), vehicle: carboxymethylcellulose (CMC)) 70 % of control; (dose: 1.0 mg/kg/injection, schedule: Q01DX011 (ip), vehicle: carboxymethylcellulose (CMC)) 61 % of control; (dose: 1.5 mg/kg/injection, schedule: Q01DX011 (ip), vehicle: carboxymethylcellulose (CMC)) 83 % of control; under setting [7], 61 % of control and 68 % of control; under setting [10], 61 % of control and 68 % of control. Also, the T/C by setting is: (dose: 12.0 mg/kg/injection, schedule: Q01DX011 (ip), vehicle: carboxymethylcellulose (CMC)) 16 % of control and 41 % of control; under setting [8], 10 % of control and 28 % of control; under setting [9], 2 % of control.
On to `O=C(O)CC(O)(CC(=O)O)C(=O)O.[Ga]`, for which the T/C runs as follows: under setting [8], 108 % of control; under setting [9], 104 % of control.
For `O=C1C(NC(=O)C2CCCCC2)=C(N2CC2)C(=O)C(NC(=O)C2CCCCC2)=C1N1CC1`, the T/C (dose: 22.0 mg/kg/injection, schedule: Q01DX011 (ip), vehicle: carboxymethylcellulose (CMC)) was 106 % of control; the T/C (dose: 43.0 mg/kg/injection, schedule: Q01DX011 (ip), vehicle: carboxymethylcellulose (CMC)) was 82 % of control; the T/C (dose: 87.0 mg/kg/injection, schedule: Q01DX011 (ip), vehicle: carboxymethylcellulose (CMC)) is 62 % of control; the T/C (dose: 350.0 mg/kg/injection, schedule: Q01DX011 (ip), vehicle: carboxymethylcellulose (CMC)) is 61 % of control.
